Laboratory results published in PubChem BioAssay AID1996.
Values after ≈ are worked out from the molar mass of the structure shown.

conditions: buffer; pH 7.4; 200.0 µM

SMILES | solubility kinetic [µg/mL]
CCOC(=O)c1[nH]c(C)c(C(=O)/C=C/c2ccc(C(=O)O)cc2)c1C | > 51.2
CN(CC(=O)Nc1cccc(F)c1)CC(=O)Nc1cccc2ccccc12 | 15.4 (≈ 42.1 µM)
CCCCn1c(O)c(/C=C2\C=Nc3ccccc32)c(=O)[nH]c1=O | 3.1 (≈ 9.96 µM)
Cc1cc(OCC(=O)N(C(C)C)C(C)C)ccc1Cl | 28.8 (≈ 101 µM)
O=C(NC1CC2CCCC(C1)N2C(=O)Nc1ccccc1F)C1CC1 (stereo not given) | 16.2 (≈ 46.9 µM)
CSc1ncc2c(=O)[nH]c(-c3ccccc3)nc2n1 | > 40.5
COc1ccccc1CC(=O)NC12CC3CC(CC(C3)C1)C2 | 7.8 (≈ 26.1 µM)
CCNC(=O)c1ccc(C23CC4CC(CC(C4)C2)C3)o1 | < 0.6
Cc1cc(C)c2c(CC(=O)NC(C)C)coc2c1 | 9.5 (≈ 38.7 µM)
COc1ccc(C(=O)NCCCSc2ccccc2)cc1F | 2.5 (≈ 7.83 µM)
O=S(=O)(Nc1ccccc1Cl)c1cccc2nsnc12 | > 48.9
COc1ccccc1-n1c(CCC(=O)O)ccc1-c1ccccc1 | > 48.2
O=C(NC1CCSc2ccccc21)c1cccc(OC(F)F)c1 (stereo not given) | 4.5 (≈ 13.4 µM)
COc1ccc(NC2=C(NC(C)=O)C(=O)c3ccccc3C2=O)cc1 | 49.5 (≈ 147 µM)
O=C(COC(=O)c1ccc[n+]([O-])c1)Nc1ccc([N+](=O)[O-])cc1C(F)(F)F | > 57.8
O=C1CSC(=S)N1c1cccc(Cl)c1 | 0.7 (≈ 2.87 µM)
Cc1cccc(OCC(=O)Nc2ccc(NC(=O)c3ccco3)cc2)c1 | 0.6 (≈ 1.71 µM)
CCOc1ccccc1NC(=O)c1cc2ccccc2oc1=O | < 0.7
Cc1ccc(OC(=O)c2cccnc2)cc1 | 22.5 (≈ 106 µM)

SMILES | solubility kinetic [µg/mL]
Cc1ccccc1OP(N)(=O)Oc1ccccc1C | > 41.6
CCN(C(=O)c1ccco1)c1nc(-c2ccc(OC)cc2)cs1 | < 0.4
COc1ccccc1Nc1nc(Cl)c(C=O)s1 | 12.1 (≈ 45 µM)
O=C(c1cccs1)N1CCN(c2ccccc2)CC1 | > 40.9
O=c1[nH]c2ccccc2c(O)c1-c1ccccc1 | 17.2 (≈ 72.5 µM)
O=C(Nc1ccccc1N1CCCC1)c1ccc2ccccc2c1 | 2.7 (≈ 8.53 µM)
Cc1onc(-c2c(Cl)cccc2Cl)c1CO/N=C(\C#N)c1c(Cl)cccc1Cl | < 0.3
CCN(CC)P(c1n(C)cc[n+]1C)N(CC)CC.[I-] | 46.9
Cc1cccc(C(=O)NCCNC(=O)c2cccnc2)c1 | 37.5 (≈ 132 µM)
S=C(NCc1ccncc1)Nc1cc(Cl)cc(Cl)c1 | 5.6 (≈ 17.9 µM)
N#C/C(=C\c1ccc(F)c(Cl)c1)S(=O)(=O)c1ccccn1 | 44 (≈ 136 µM)
Cc1ccc(C)c(SCC(=O)Nc2cccc(S(=O)(=O)N3CCOCC3)c2)c1 | 21.4 (≈ 50.9 µM)
Cc1onc(-c2c(Cl)cccc2Cl)c1C(O)c1ccc(F)cc1 (stereo not given) | 42.1 (≈ 120 µM)
Cc1noc(/C=C/c2ccccn2)c1[N+](=O)[O-] | 19.3 (≈ 83.5 µM)
Cc1ccc(NC(=O)Cn2cc([N+](=O)[O-])nc2C)cc1C | 14.8 (≈ 51.3 µM)
Cc1cc(=O)[nH]c2c(C)cc(S(=O)(=O)N3CCCCC3)cc12 | 2.6 (≈ 8.11 µM)
CN1CC(C(=O)c2ccccc2)C(c2ccccc2)C1 (stereo not given) | > 39.8
O=C(Nc1ccn([C@H]2CC[C@@H](CO)O2)c(=O)n1)c1ccccc1 | > 47.3
O=C(COC(=O)CCc1c[nH]c2ccccc12)Nc1ccccc1 | 4.5 (≈ 14 µM)

The remaining lines, values ahead:

solubility kinetic [µg/mL] | SMILES
42.2 (≈ 140 µM) | CN(C(=O)CSc1ncccn1)C1CCS(=O)(=O)C1 (stereo not given)
35.2 (≈ 140 µM) | CC(c1ccccc1)n1c(CO)nc2ccccc21 (stereo not given)
> 40.4 | COc1cc2c(cc1OC)C(c1ccccc1)NCC2 (stereo not given)
1.7 (≈ 5.38 µM) | O=C(COc1ccccc1[N+](=O)[O-])Nc1ccc2c(c1)OCO2
< 0.7 | CC(C)(C)C(=O)/C=c1\[nH]c(=O)/c(=C\c2ccccc2F)s1
> 35 | O=C(O)c1ccc(NCc2cccs2)cc1
43.8 (≈ 132 µM) | OC1CCC(NC(=S)Nc2ccc(SC(F)F)cc2)CC1 (stereo not given)
> 34.2 | O=C(c1cccc([N+](=O)[O-])c1)c1ccccn1
30.5 (≈ 123 µM) | Cc1ccc(NC(=S)N2CCCCC2)cc1C
27.2 (≈ 148 µM) | N#Cc1cc(N)ccc1-n1cccc1
> 47.3 | CC1=C([N+](=O)[O-])C(c2ccccc2C(F)(F)F)NC(=O)N1C (stereo not given)
42.9 (≈ 119 µM) | O=C(CN1C(=O)NC2(CCCCCCC2)C1=O)NCc1ccc(F)cc1
< 0.3 | O=[N+]([O-])c1ccc2oc(-c3ccccc3)nc2c1
6.2 (≈ 24.2 µM) | O=[N+]([O-])c1ccc2c(c1)c1ccccc1n2CCO
45.7 (≈ 147 µM) | CC(=O)NC(CC(=O)NCCc1ccccc1)c1ccccc1 (stereo not given)
< 0.3 | CCOC(=O)c1ccc(NC(=S)NCc2ccccc2)cc1
> 50.6 | COc1ccc(C2C(C(C)=O)=C(O)C(=O)N2c2ccc(C)cc2)cc1 (stereo not given)
2.9 (≈ 8.55 µM) | CCn1cc(C(=O)NCc2ccccc2F)c(=O)c2ccc(C)nc21
> 48.2 | CC(C)(C)C(=O)Nc1ccccc1-c1nc2ccccc2[nH]c1=O
> 41 | COc1cc(/C=N/Nc2ccccn2)cc(OC)c1O
> 46 | Cc1cccc(OCC(=O)NCC(C)(C)N2CCOCC2)c1
41.1 (≈ 129 µM) | CN(Cc1nc(Cc2cccc(F)c2)no1)CC1CCOCC1
